Results taken from US20060252807A1, “Novel ortho-terphenyl inhibitors of p38 kinase and methods of treating inflammatory disorders” (Kalypsys, Inc., priority 2005, published 2006).

Target: T1, active p38 alpha enzyme (Upstate Biotechnology) (Homo sapiens, UniProt Q16539)
T1 construct: purchased Upstate Biotechnology
Assay: p38α biochemical assay (ATP turnover, luminescent detection, Cambrex PKlight)
Settings: p38α kinase; Table 1 Biological Activity
Outline: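 Luminescent ATP-depletion readout measures total ATP turnover by p38α phosphorylating whole MapkapK2 protein. ATP 1.4 uM final; 30C, 2 h. Compounds delivered from DMSO.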

T1 sequence (Q16539 whole entry): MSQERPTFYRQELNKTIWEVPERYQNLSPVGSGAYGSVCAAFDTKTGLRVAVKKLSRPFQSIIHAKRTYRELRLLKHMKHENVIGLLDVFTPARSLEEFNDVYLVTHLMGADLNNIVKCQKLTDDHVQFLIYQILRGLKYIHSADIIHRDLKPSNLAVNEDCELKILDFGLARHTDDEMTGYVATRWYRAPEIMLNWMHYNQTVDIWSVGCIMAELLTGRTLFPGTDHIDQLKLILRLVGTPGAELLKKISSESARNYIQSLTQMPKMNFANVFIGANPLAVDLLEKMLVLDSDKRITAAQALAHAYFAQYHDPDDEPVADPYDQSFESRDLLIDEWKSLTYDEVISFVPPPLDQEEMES

Compound | IC50 [nM]
Cc1nc(-c2ccc(F)cc2)c(-c2nc(C(=O)NC3CCN(Cc4ccccc4)CC3)cs2)s1 [Example 1826] | > 1000
Cc1nc(-c2ccc(F)cc2)c(-c2nc(C(=O)NCc3ccccc3OC(F)(F)F)cs2)s1 [Example 1827] | ≤ 1000
Cc1nc(-c2ccc(F)cc2)c(-c2nc(C(=O)NCCc3ccc(S(N)(=O)=O)cc3)cs2)s1 [Example 1828] | ≤ 1000
COc1ccc(C(=O)CNC(=O)c2csc(-c3sc(C)nc3-c3ccc(F)cc3)n2)cc1 [Example 1829] | > 1000
Cc1nc(-c2ccc(F)cc2)c(-c2nc(C(=O)NCCc3ccc4c(c3)OCO4)cs2)s1 [Example 1830] | ≤ 1000
Cc1nc(-c2ccc(F)cc2)c(-c2nc(C(=O)NCCC(c3ccccc3)c3ccccc3)cs2)s1 [Example 1831] | > 1000
Cc1ccc(S(=O)(=O)NCCNC(=O)c2csc(-c3sc(C)nc3-c3ccc(F)cc3)n2)cc1 [Example 1832] | ≤ 1000
Cc1nc(-c2ccc(F)cc2)c(-c2nc(C(=O)N(C)C)cs2)s1 [Example 1834] | > 1000
CCN(C)C(=O)c1csc(-c2sc(C)nc2-c2ccc(F)cc2)n1 [Example 1835] | > 1000
C#CCN(C)C(=O)c1csc(-c2sc(C)nc2-c2ccc(F)cc2)n1 [Example 1836] | > 1000
CCN(CC)C(=O)c1csc(-c2sc(C)nc2-c2ccc(F)cc2)n1 [Example 1837] | > 1000
CCCN(C)C(=O)c1csc(-c2sc(C)nc2-c2ccc(F)cc2)n1 [Example 1838] | > 1000
Cc1nc(-c2ccc(F)cc2)c(-c2nc(C(=O)N(C)CCO)cs2)s1 [Example 1839] | > 1000
Cc1nc(-c2ccc(F)cc2)c(-c2nc(C(=O)N(C)CCC#N)cs2)s1 [Example 1840] | > 1000
Cc1nc(-c2ccc(F)cc2)c(-c2nc(C(=O)N3CCOCC3)cs2)s1 [Example 1841] | > 1000
Cc1nc(-c2ccc(F)cc2)c(-c2nc(C(=O)N(C)CC(C)C)cs2)s1 [Example 1842] | > 1000
CCN(C(=O)c1csc(-c2sc(C)nc2-c2ccc(F)cc2)n1)C(C)C [Example 1843] | > 1000
CCCCN(C)C(=O)c1csc(-c2sc(C)nc2-c2ccc(F)cc2)n1 [Example 1844] | > 1000
CCN(CCO)C(=O)c1csc(-c2sc(C)nc2-c2ccc(F)cc2)n1 [Example 1845] | > 1000
Cc1nc(-c2ccc(F)cc2)c(-c2nc(C(=O)N3CCSC3)cs2)s1 [Example 1846] | > 1000
Cc1nc(-c2ccc(F)cc2)c(-c2nc(C(=O)N3CCCCC3C)cs2)s1 (stereo not shown) [Example 1847] | > 1000
Cc1nc(-c2ccc(F)cc2)c(-c2nc(C(=O)N3CCC(C)CC3)cs2)s1 [Example 1848] | > 1000
Cc1nc(-c2ccc(F)cc2)c(-c2nc(C(=O)N3CCN(C)CC3)cs2)s1 [Example 1849] | > 1000
Cc1nc(-c2ccc(F)cc2)c(-c2nc(C(=O)N3CCCC3CO)cs2)s1 (stereo not shown) [Example 1850] | ≤ 1000
Cc1nc(-c2ccc(F)cc2)c(-c2nc(C(=O)N3CCC[C@@H]3CO)cs2)s1 [Example 1851] | > 1000
CCCCN(CC)C(=O)c1csc(-c2sc(C)nc2-c2ccc(F)cc2)n1 [Example 1852] | > 1000
CCCN(CCC)C(=O)c1csc(-c2sc(C)nc2-c2ccc(F)cc2)n1 [Example 1853] | > 1000

Compound | IC50 [nM]
Cc1nc(-c2ccc(F)cc2)c(-c2nc(C(=O)N3CCSCC3)cs2)s1 [Example 1854] | > 1000
Cc1nc(-c2ccc(F)cc2)c(-c2nc(C(=O)N(CCO)CCO)cs2)s1 [Example 1855] | > 1000
Cc1nc(-c2ccc(F)cc2)c(-c2nc(C(=O)N3CC(C)CC(C)C3)cs2)s1 (stereo not shown) [Example 1856] | > 1000
Cc1nc(-c2ccc(F)cc2)c(-c2nc(C(=O)N(C)C3CCCCC3)cs2)s1 [Example 1857] | > 1000
Cc1nc(-c2ccc(F)cc2)c(-c2nc(C(=O)N3C(C)CCCC3C)cs2)s1 (stereo not shown) [Example 1858] | > 1000
Cc1nc(-c2ccc(F)cc2)c(-c2nc(C(=O)N3CCC(N(C)C)C3)cs2)s1 (stereo not shown) [Example 1859] | > 1000
Cc1nc(-c2ccc(F)cc2)c(-c2nc(C(=O)N3CC(C)NC(C)C3)cs2)s1 (stereo not shown) [Example 1860] | > 1000
Cc1nc(-c2ccc(F)cc2)c(-c2nc(C(=O)N3CCCC(CO)C3)cs2)s1 (stereo not shown) [Example 1861] | > 1000
COC[C@@H]1CCCN1C(=O)c1csc(-c2sc(C)nc2-c2ccc(F)cc2)n1 [Example 1862] | ≤ 1000
Cc1nc(-c2ccc(F)cc2)c(-c2nc(C(=O)N3CC(C)OC(C)C3)cs2)s1 (stereo not shown) [Example 1863] | > 1000
Cc1nc(-c2ccc(F)cc2)c(-c2nc(C(=O)N3CCCCC3CO)cs2)s1 (stereo not shown) [Example 1864] | > 1000
CCN(CCCCO)C(=O)c1csc(-c2sc(C)nc2-c2ccc(F)cc2)n1 [Example 1865] | > 1000
Cc1nc(-c2ccc(F)cc2)c(-c2nc(C(=O)N3Cc4ccccc4C3)cs2)s1 [Example 1866] | > 1000
Cc1nc(-c2ccc(F)cc2)c(-c2nc(C(=O)N(C)Cc3ccccc3)cs2)s1 [Example 1867] | > 1000
CCN(C(=O)c1csc(-c2sc(C)nc2-c2ccc(F)cc2)n1)C1CCCCC1 [Example 1868] | > 1000
Cc1nc(-c2ccc(F)cc2)c(-c2nc(C(=O)N3CCC(C(N)=O)CC3)cs2)s1 [Example 1869] | > 1000
CC(=O)N[C@H]1CCN(C(=O)c2csc(-c3sc(C)nc3-c3ccc(F)cc3)n2)C1 [Example 1870] | > 1000
Cc1nc(-c2ccc(F)cc2)c(-c2nc(C(=O)N3CCCC(C(N)=O)C3)cs2)s1 (stereo not shown) [Example 1872] | > 1000
Cc1nc(-c2ccc(F)cc2)c(-c2nc(C(=O)N3CCCCC3CCO)cs2)s1 (stereo not shown) [Example 1873] | > 1000
Cc1nc(-c2ccc(F)cc2)c(-c2nc(C(=O)N3CCc4ccccc4C3)cs2)s1 [Example 1874] | > 1000
CCN(Cc1ccccc1)C(=O)c1csc(-c2sc(C)nc2-c2ccc(F)cc2)n1 [Example 1875] | > 1000
Cc1nc(-c2ccc(F)cc2)c(-c2nc(C(=O)N(C)CCc3ccccc3)cs2)s1 [Example 1877] | > 1000
Cc1nc(-c2ccc(F)cc2)c(-c2nc(C(=O)N(C)CCc3ccccn3)cs2)s1 [Example 1878] | > 1000
Cc1nc(-c2ccc(F)cc2)c(-c2nc(C(=O)N3CCCC4CCCCC43)cs2)s1 (stereo not shown) [Example 1880] | ≤ 1000
C=CCN(C(=O)c1csc(-c2sc(C)nc2-c2ccc(F)cc2)n1)C1CCCCC1 [Example 1881] | > 1000
COC(=O)C1CCN(C(=O)c2csc(-c3sc(C)nc3-c3ccc(F)cc3)n2)CC1 [Example 1882] | > 1000
Cc1nc(-c2ccc(F)cc2)c(-c2nc(C(=O)N(Cc3ccccc3)C(C)C)cs2)s1 [Example 1883] | > 1000

Compound | IC50 [nM]
Cc1nc(-c2ccc(F)cc2)c(-c2nc(C(=O)N(CCO)Cc3ccccc3)cs2)s1 [Example 1884] | > 1000
Cc1nc(-c2ccc(F)cc2)c(-c2nc(C(=O)N(C)CC(O)c3ccccc3)cs2)s1 (stereo not shown) [Example 1885] | > 1000
Cc1nc(-c2ccc(F)cc2)c(-c2nc(C(=O)N3CCC(O)(O)CC3)cs2)s1 [Example 1886] | > 1000
CCOC(=O)C1CCN(C(=O)c2csc(-c3sc(C)nc3-c3ccc(F)cc3)n2)CC1 [Example 1887] | > 1000
CCOC(=O)C1CCCN(C(=O)c2csc(-c3sc(C)nc3-c3ccc(F)cc3)n2)C1 (stereo not shown) [Example 1888] | > 1000
CCOC(=O)N1CCN(C(=O)c2csc(-c3sc(C)nc3-c3ccc(F)cc3)n2)CC1 [Example 1889] | > 1000
Cc1nc(-c2ccc(F)cc2)c(-c2nc(C(=O)N(CCC#N)Cc3cccnc3)cs2)s1 [Example 1891] | > 1000
Cc1nc(-c2ccc(F)cc2)c(-c2nc(C(=O)N3CCN(c4ccccc4)CC3)cs2)s1 [Example 1892] | > 1000
Cc1nc(-c2ccc(F)cc2)c(-c2nc(C(=O)N3CCN(c4ccccn4)CC3)cs2)s1 [Example 1893] | > 1000
CCCCN(Cc1ccccc1)C(=O)c1csc(-c2sc(C)nc2-c2ccc(F)cc2)n1 [Example 1894] | > 1000
Cc1nc(-c2ccc(F)cc2)c(-c2nc(C(=O)N(CCO)[C@H](C)c3ccccc3)cs2)s1 [Example 1895] | > 1000
Cc1nc(-c2ccc(F)cc2)c(-c2nc(C(=O)N(CCCO)Cc3ccccn3)cs2)s1 [Example 1896] | > 1000
Cc1nc(-c2ccc(F)cc2)c(-c2nc(C(=O)N(C)CC(O)c3ccc(O)cc3)cs2)s1 (stereo not shown) [Example 1897] | > 1000
Cc1nc(-c2ccc(F)cc2)c(-c2nc(C(=O)N3CCN(C4CCCCC4)CC3)cs2)s1 [Example 1898] | > 1000
Cc1nc(-c2ccc(F)cc2)c(-c2nc(C(=O)N3CCC(Cc4ccccc4)CC3)cs2)s1 [Example 1899] | > 1000
Cc1nc(-c2ccc(F)cc2)c(-c2nc(C(=O)N3CCN(Cc4ccccc4)CC3)cs2)s1 [Example 1900] | > 1000
Cc1nc(-c2ccc(F)cc2)c(-c2nc(C(=O)N3CCCN(Cc4ccccc4)CC3)cs2)s1 [Example 1901] | > 1000
Cc1nc(-c2ccc(F)cc2)c(-c2nc(C(=O)N3CCN(c4ccc(O)cc4)CC3)cs2)s1 [Example 1902] | > 1000
Cc1nc(-c2ccc(F)cc2)c(-c2nc(C(=O)N(CCN(C)C)Cc3ccccc3)cs2)s1 [Example 1903] | > 1000
Cc1nc(-c2ccc(F)cc2)c(-c2nc(C(=O)N3CCN(c4ccccc4F)CC3)cs2)s1 [Example 1904] | > 1000
Cc1nc(-c2ccc(F)cc2)c(-c2nc(C(=O)N3CCN(c4ccc(F)cc4)CC3)cs2)s1 [Example 1905] | > 1000
Cc1nc(-c2ccc(F)cc2)c(-c2nc(C(=O)N3CCN(CC4CCCCC4)CC3)cs2)s1 [Example 1906] | > 1000
Cc1nc(-c2ccc(F)cc2)c(-c2nc(C(=O)N(C)C[C@H](O)c3ccc(O)c(O)c3)cs2)s1 [Example 1907] | > 1000
CCOC(=O)CC1C(=O)NCCN1C(=O)c1csc(-c2sc(C)nc2-c2ccc(F)cc2)n1 (stereo not shown) [Example 1908] | ≤ 1000
Cc1nc(-c2ccc(F)cc2)c(-c2nc(C(=O)N3CCN(C(=O)OC(C)(C)C)CC3)cs2)s1 [Example 1909] | > 1000
